What was measured:
atuA = atuA promoter-luxCDABE biosensor gene expression; format: cell-based; settings: Pseudomonas OST1909
Protocol: Routine microbiology and gene expression assays using 96 well plates were performed to grow the biosensor strains in the presence of environmental water samples, and the light output from the biosensor was used as a proxy to indicate the concentration of naphthenic acids in the water.
In the fourth step, all plasmid-encoded genetic circuits were introduced back into Pseudomonas OST1909 for validation.
“SIGMA” and “Acros” indicate two sources of primarily acyclic NA mixtures. […] A post hoc Tukey HSD test was conducted with each compound and mixture to test significant relationships between each group (α=0.05, n=3).

atu operon = settings: stated as known; cited from earlier work

Row | SMILES | induction of the atu operon / atu genes (atuA) | induction of atu genes in Pseudomonas aeruginosa by acyclic terpenes (atu operon)
1 | CC(C)=CCCC(C)CC(=O)O (centres unmarked) [citronellic acid] | induce expression | 
2 | CC(C)=CCCC(C)CCO (centres unmarked) [citronellol] | do not induce | induced
3 | CC(C)=CCC/C(C)=C/CO [geraniol] | do not induce | induced
